The results in this text go back to patent US8901120B2, “Substituted N-phenylpyrimidin-2-amine analogs as inhibitors of the Axl kinase” (University of Utah Research Foundation, priority 2011, dated 2014).

As a reminder, the AUC(0-t) is exposure summed from dosing to a finite time, without extrapolation to infinity. As usually defined, the Cmax is the highest concentration seen after dosing. The Tmax is the time at which the peak concentration occurs. As usually defined, the half-life is how long it takes for the measured level to halve. Low readings indicate rapid decline, high ones slow decline. Usually IC50 stands for the concentration at which inhibition is half-maximal.

One data set has as its system PSN-1 cells. In words: Tumor xenograft animal model. It counts as in vivo, mouse. As to conditions: PSN-1 xenograft, 50 mg/kg oral gavage daily (M-F). The protocol:
The in vivo activity of the foregoing compound was assessed in a tumor xenograft model in mouse. PSN-1 cells were cultured as described above and harvested. Cells (2 to 5×10^6 in 100 μl culture media) were implanted subcutaneously in the right hind flank of athymic nu/nu nude mice (5 to 6 weeks old, 18-22 g). Following implantation, the tumors are allowed to grow to 100 mm^3 before the animals are randomized into treatment groups (vehicle and test compound). Day 1 of study corresponds to the day that the animals receive their first dose of test compound (2-((5-chloro-2-((4-((4-methylpiperazin-1-yl)methyl)phenyl)amino)pyrimidin-4-yl)amino)-N,N-dimethylbenzenesulfonamide). The vehicle for this study was 5% EtOH, 45% PEG 400, and 50% water, and animals were dosed with either vehicle or test compound dissolved in this vehicle by oral gavage. The dose level was 50 mg/kg and dosing frequency was daily (M-F) with the test compound with recovery on the weekend.
The test compound was efficacious in limiting tumor growth, achieving about a 50% reduction in tumor volume at this dose level during this dosing period (FIG. 15).

Another data set has as its system Aurora family of kinases. In words: Kinase profiling, Aurora family. Format: biochemical. As to conditions: 200 nM test compound, ATP at Km apparent, FIG. 9. As to the method: (§1) The specificity of kinase inhibition was assessed with a representative compound, 2-((5-chloro-2-((4-((4-methylpiperazin-1-yl)methyl)phenyl)amino)pyrimidin-4-yl)amino)-N,N-dimethylbenzenesulfonamide, by determining the activity of this test compound against a panel of protein kinases. Kinase profiling was performed against a focus panel of kinases relevant to PDK1 signaling and other known oncogenic kinases. The panel comprised 75 distinct protein kinases, and data are shown for a subset of 39 kineases (see FIG. 9). […] The results from this screen confirmed good activity against Axl and the related members of the TAM family of kinases.

In data set [1] the test system is Axl and the related members of the TAM family of kinases. The data set can be described thus: Kinase profiling, Axl and TAM family. Format: biochemical. As to conditions: 200 nM test compound, ATP at Km apparent, FIG. 9. The protocol:
as §1

Data set [2] can be described thus: Pharmacokinetics after oral dosing. Format: in vivo. As to conditions: mouse, mice, 50 mg/kg orally, plasma. The protocol:
Mice were dosed orally with 50 mg/kg of the title compound. Blood was collected at the indicated time points (see FIG. 16).

The test system of the next data set is pancreatic cancer cells. The data set can be described thus: Cell migration assay (collagen I Platypus plates). Format: cell-based. As to conditions: 18 hours migration, with Gas6, FIG. 10. The protocol: In this system, a gel prevents attachment of cells in a circle. The gel dissolves by exposure to the media, allowing cells to migrate into the open area. Cells migrated for 18 hours before fixation and staining. The extent of cell migration was determined by measuring the open surface in the inner circle of the well.

Data set [3] relates to phosphorylated Akt (Ser473). In words: GAS6-Axl signalling assay, phosphorylated Akt. It counts as cell-based. As to conditions: Homo sapiens; PSN-1 and PL45 cells, in the presence of Gas6, FIG. 8A; read-out: IC50, inhibition of phosphorylated Akt levels. As to the method:
(§2) Cell lines were seeded in 1 ml of the appropriate growth media with 10% FBS into 6-well plates (8×10^5 cells/well) and incubated overnight at 37° C. and 5% CO2. The following day, serum-containing growth media was replaced by serum-free media and incubated for 4 hr, and then test compounds were added to the cells at desired concentrations and incubated for an additional 2 hr. To stimulate Axl signaling, Gas6 was added to each well to a concentration of 3 μg/ml and incubated for 10 min. The cells were lysed immediately and the lysates used in a multiplex ELISA kit (Meso Scale Discovery, Gaithersburg, Md.) to quantitate the phosphorylated AKT (at position Ser473′ “pAkt”) or phosphorylated Axl (“pAxl”).
To further explore the activity of a representative compound, 2-((5-chloro-2-((4-((4-methylpiperazin-1-yl)methyl)phenyl)amino)pyrimidin-4-yl)amino)-N,N-dimethylbenzenesulfonamide, of inhibiting Axl in a cell line system, the effect of the test compound on Akt phosphorylation (at the Ser473 position) was determined. The effect on Akt phosphorylation was assessed in two cell-lines (see FIG. 8A): PSN-1 and PL45. The overall method was as described above. Briefly, the cells were treated as indicated and lysates from these treatments were analyzed for phosphorylated Akt (Ser473) as described above.

The test system of a further data set is JAK family of kinases. In words: Kinase profiling, JAK family. Format: biochemical. The following applies: 200 nM test compound, ATP at Km apparent, FIG. 9. The protocol:
as §1

Data set [4] relates to sAxl in PL45 and PSN-1 cells. In words: Release of sAxl into cell culture media (ELISA). It counts as cell-based, Human. As to conditions: PL45 and PSN-1, serum-free, 24 hours, vs vehicle, FIG. 11. As to the method:
Cell lines were plated and incubated overnight as described above. The following day the media was changed to serum-free and the cells were treated as indicated as indicated. After 24 hours, the media from the treatments were analyzed for sAxl (R&D Systems, Minneapolis, Minn.).
The proteolytic processing of the extracellular domain of the Axl receptor is a known event downstream of Axl activation and results in the release of soluble Axl (sAxl) into the cell culture media (in vitro) or into the blood stream (in vivo).

The test system of data set [5] is phosphorylated Axl (pAxl). In words: GAS6-Axl signalling assay, autophosphorylation of Axl. It counts as cell-based, Human. The following applies: pancreatic cancer cell lines, GAS6 stimulation, FIG. 8B. As to the method: as §2

As to `CN1CCN(Cc2ccc(Nc3ncc(Cl)c(Nc4ccccc4S(=O)(=O)N(C)C)n3)cc2)CC1` [2-((5-chloro-2-((4-((4-methylpiperazin-1-yl)methyl)phenyl)amino)pyrimidin-4-yl)amino)-N,N-dimethylbenzenesulfonamide], in the data set on PSN-1 cells (FIG. 14), the “impact on body weight” value is reported as “no apparent impact”. For the same molecule, the “reduction in tumor volume” value in the data set on PSN-1 cells (FIG. 15) is given as approximately 50%. Besides, in the data set with Aurora family of kinases, the “activity against Aurora family kinases in kinase profiling” value is “significant activity”. Moreover, the “activity against Axl and TAM family kinases in kinase profiling” value in data set [1] is on record as “good activity”. Also, in data set [2], the area under the curve AUC(0-t) is 507 ng·h/mL, the highest level (Cmax) was 604 ng/mL, the time to peak (Tmax) amounted to 15 min and the half-life was 66 min. For the same molecule, the “inhibition of Gas6-induced migration and invasion” value in the data set with pancreatic cancer cells was “inhibited”. The 50% inhibitory concentration (IC50) in data set [3] is approximately 300 nM. Besides, in the data set on JAK family of kinases, the “activity against JAK family kinases in kinase profiling” value is “significant activity”. In addition, the “reduction in sAxl levels in conditioned media” value in data set [4] is reported as “significant dose-dependent reductions”. For the same molecule, the “inhibition of autophosphorylation of Axl” value in [5] is “dramatically inhibited”.
